Among the data in patent US20060013906A1, “Anti-helicobacter activity of celery seed extract” (priority 2002, published 2006) are MBC and MIC values, retold here.

≈ marks a conversion by molar mass, not a printed value.

For this assay, the system named is H. pylori (strain 3339). Nature of the assay: Broth dilution antimicrobial test, H. pylori strain 3339. Format: cell-based, Helicobacter pylori. As to conditions: compounds from subfractions 6 and 10.
In turn, `CCCCC/C=C/C/C=C/CCCCCCCC(=O)O` [Linoleic acid, cis, cis - 9,12- Octadecadienoic acid] returned a minimum bactericidal concentration (MBC) of more than 125 µg/mL and an MIC of 62.5 µg/mL (≈ 223 µM). The like results for α and β-Eudesmol were, in that order, 125 µg/mL and 15.6 µg/mL. Compound `CCCCC1OC(=O)c2ccccc21` (stereo not shown) [3-n Butyl phthalide, 3-n-butyl phthalide] showed an MIC of 15.6 µg/mL (≈ 82.1 µM). Consider `CCCCC1OC(=O)C2=C1CCC=C2` (stereo not shown) [sedanenolide, 3-n-butyl 4,5-dihydrolphthalide], for which the minimal bactericidal concentration (MBC) was 62.5 µg/mL (≈ 325 µM) and the MIC is 31.2 µg/mL (≈ 163 µM).
